Columns and labels:
Feline herpes virus = assay: Antiviral screening, Feline herpes virus in CRFK cells; assay type: cell-based; conditions: read-out: EC50 Feline herpes virus
Reovirus-1 = assay: Antiviral screening, Reovirus-1 in MDCK cells; assay type: cell-based; conditions: read-out: EC50 Reovirus-1
Parainfluenza 3-virus = assay: Antiviral screening, Parainfluenza 3-virus in MDCK cells; assay type: cell-based; conditions: read-out: EC50 Parainfluenza 3-virus
[1] = tested on: CEM, HeL, CRFK, HeLa, MDCK cells; conditions: above mentioned cell lines
[2] = tested on: FIV (feline immunodeficiency virus); conditions: cited from earlier work
FIV = assay: Anti-FIV activity in CrFK cells; assay type: cell-based, feline immunodeficiency virus
Feline herpesvirus = assay: Antiviral activity against Feline herpesvirus; assay type: cell-based
VV = assay: Antiviral activity against VV; assay type: cell-based
HCMV = assay: Antiviral activity against HCMV; assay type: cell-based
HSV-1 = assay: Antiviral activity against HSV-1; assay type: cell-based
HSV-2 = assay: Antiviral activity against HSV-2; assay type: cell-based

SMILES	EC50 (Feline herpes virus) [µg/mL]	EC50 (Reovirus-1) [µg/mL]	EC50 (Parainfluenza 3-virus) [µg/mL]	MCC, minimum cytotoxicity concentration required to cause a microscopically detectable alteration of normal cell morphology [1] [μg/mL]	other results
C[C@@H](O)CNc1nc(N)c2ncn(C[C@@H](C)O)c2n1 [compound 3, (R)-1-{6-Amino-2-[(R)-2-(hydroxypropyl)amino]-9H-purin-9-yl}propan-2-ol]	> 100	> 100	> 100	> 100	–
C[C@@H](O)CNc1nc(N)nc2c1ncn2C[C@@H](C)O [compound 4, (R)-1-{2-Amino-6-[((R)-2-hydroxypropyl)amino]-9H-purin-9-yl}propan-2-ol]	> 100	> 100	> 100	> 100	–
C[C@H](Cn1cnc2c(NCP(=O)(O)O)nc(N)nc21)OCP(=O)(O)O [compound 10, (R)-9-[2-(Phosphonomethoxy)propyl]-N^6-phosphonomethyl-2,6-diaminopurine]	> 100	> 100	> 100	> 100	–
C[C@H](Cn1cnc2c(N)nc(N)nc21)OCP(=O)(O)O [compound 12, (R)-9-[2-(phosphonomethoxy)propyl]-2,6-diaminopurine]	–	–	–	–	inhibition of FIV infections in cats [2]: very potent inhibitor
CCCCCCCCCCCCCCCCOCCCOP(=O)([O-])CO[C@H](C)Cn1cnc2c(N)nc(N)nc21.[Na+] [compound 14, Hexadecyloxypropyl ester of (R)-9-[2-(phosphonomethoxy)propyl]-2,6-diaminopurine, sodium salt]	–	–	–	–	fold more potent in inhibiting FIV replication compared to the parent molecule (FIV; in vitro, versus (R)-PMPDAP): 200 fold; activity against Feline herpesvirus (Feline herpesvirus): No activity; activity against VV (VV): No activity; activity against HCMV (HCMV): No activity; activity against HSV-1 (HSV-1): No activity; activity against HSV-2 (HSV-2): No activity
CCOC(=O)[C@H](C)NP(=O)(CO[C@H](C)Cn1cnc2c(N)nc(N)nc21)N[C@@H](C)C(=O)OCC [compound 15]	–	–	–	–	fold less active against FIV compared to the parent molecule (FIV): 10 fold
